biological target: T1, NEDD8-activating enzyme (NAE) (Homo sapiens, UniProt Q8TBC4); test: cell-free Ubc12-NEDD8 conjugation assay, western blot; format: biochemical
T1 construct: gene UBA3; recombinant human NAE (APPBP1/UBA3 heterodimer); with APPBP1 (NAE1)
T1 sequence (Q8TBC4 2-463): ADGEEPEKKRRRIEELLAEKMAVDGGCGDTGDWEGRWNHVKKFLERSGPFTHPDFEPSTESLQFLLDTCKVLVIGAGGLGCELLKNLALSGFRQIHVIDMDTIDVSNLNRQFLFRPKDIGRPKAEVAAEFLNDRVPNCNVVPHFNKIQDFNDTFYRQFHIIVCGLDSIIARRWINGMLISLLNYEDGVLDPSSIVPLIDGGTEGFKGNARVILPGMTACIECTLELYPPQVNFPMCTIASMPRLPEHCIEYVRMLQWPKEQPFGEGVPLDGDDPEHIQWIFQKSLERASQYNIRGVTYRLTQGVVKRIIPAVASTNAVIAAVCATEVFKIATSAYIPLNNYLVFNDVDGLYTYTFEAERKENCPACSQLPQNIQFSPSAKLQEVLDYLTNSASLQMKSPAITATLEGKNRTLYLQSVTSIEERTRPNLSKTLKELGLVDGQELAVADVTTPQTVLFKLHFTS
T1 sequence (Q13564 2-534 partner): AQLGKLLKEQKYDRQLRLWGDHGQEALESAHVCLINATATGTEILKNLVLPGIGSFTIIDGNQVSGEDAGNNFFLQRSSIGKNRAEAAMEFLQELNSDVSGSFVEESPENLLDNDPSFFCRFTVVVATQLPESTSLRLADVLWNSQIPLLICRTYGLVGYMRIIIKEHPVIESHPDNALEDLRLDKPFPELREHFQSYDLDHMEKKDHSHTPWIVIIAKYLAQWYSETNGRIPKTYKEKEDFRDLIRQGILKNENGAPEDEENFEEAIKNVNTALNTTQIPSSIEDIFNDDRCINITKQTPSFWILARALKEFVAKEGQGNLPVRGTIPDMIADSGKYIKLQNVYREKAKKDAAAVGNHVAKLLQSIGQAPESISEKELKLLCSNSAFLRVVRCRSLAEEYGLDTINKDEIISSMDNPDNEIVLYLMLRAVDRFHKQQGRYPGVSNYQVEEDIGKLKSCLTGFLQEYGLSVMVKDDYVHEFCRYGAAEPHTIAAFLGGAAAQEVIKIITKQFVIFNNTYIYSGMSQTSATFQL

Compared with `c1cc[c]2c(c1)-c1cccc[n+]1[Rh-3]213([c]2ccccc2-c2cccc[n+]21)[n+]1cccc2c4nc5ccccc5nc4c4ccc[n+]3c4c21` [compound 1, [Rh(ppy)2(dppz)]^+], `Cc1cc2nc3c4ccc[n+]5c4c4c(ccc[n+]4[Rh-3]546([c]5ccccc5-c5cccc[n+]54)[c]4ccccc4-c4cccc[n+]46)c3nc2cc1C` [compound 2, complex 2] is 4.2-fold higher in IC50: ~1.5 µM for the first, ~6.25 µM for the second.

First: Cc1cc2nc3c4ccc[n+]5c4c4c(ccc[n+]4[Rh-3]546([c]5cc(C=O)ccc5-c5cccc[n+]54)[c]4cc(C=O)ccc4-c4cccc[n+]46)c3nc2cc1C [compound 3, complex 3]
Second: O=Cc1ccc2[c](c1)[Rh-3]13([c]4cc(C=O)ccc4-c4cccc[n+]41)([n+]1ccccc1-2)[n+]1cccc2c4nc5ccc([N+](=O)[O-])cc5nc4c4ccc[n+]3c4c21 [compound 4, complex 4]
The IC50 of the first is 2.1-fold lower: ~6.25 µM for the first, ~13 µM for the second.

From article PMC3501507, “A Metal-Based Inhibitor of NEDD8-Activating Enzyme” (PLoS ONE, 2012)
